Data published in ChEMBL document CHEMBL1158011, “Five new flavone 5-O-glycosides from Lethedon tannaensis: lethedosides and lethediosides” (J Nat Prod, 1999).
Converted amounts (≈) assume the structure as drawn.

The molecules below were run on KB (assay: Cytotoxicity against human KB cells after 72 hrs by neutral red assay).
Type: functional, cell-based
COc1ccc(-c2cc(=O)c3c(O[C@@H]4O[C@H](CO[C@@H]5OC[C@@H](O)[C@H](O)[C@H]5O)[C@@H](O)[C@H](O)[C@H]4O)cc(OC)cc3o2)cc1 showed an IC50 of over 100 µg/mL. With COc1cc(O[C@@H]2O[C@H](CO[C@@H]3OC[C@@H](O)[C@H](O)[C@H]3O)[C@@H](O)[C@H](O)[C@H]2O)c2c(=O)cc(-c3ccc(OC)c(OC)c3)oc2c1 [LETHEDIOSIDE A] the IC50 was over 100 µg/mL. COc1cc(O[C@@H]2O[C@H](CO[C@@H]3OC[C@@H](O)[C@H](O)[C@H]3O)[C@@H](O)[C@H](O)[C@H]2O)c2c(=O)cc(-c3cc(OC)c(OC)c(OC)c3)oc2c1 [LETHEDIOSIDE B] gave an IC50 of 32 µg/mL (≈ 49 µM). COc1cc(O[C@@H]2O[C@H](CO)[C@@H](O)[C@H](O)[C@H]2O)c2c(=O)cc(-c3ccc(OC)c(OC)c3)oc2c1 [LETHEDOSIDE A] was tested, and the IC50 was over 100 µg/mL. Molecule COc1cc(O[C@@H]2O[C@H](CO)[C@@H](O)[C@H](O)[C@H]2O)c2c(=O)cc(-c3cc(OC)c(OC)c(OC)c3)oc2c1 [LETHEDOSIDE B] has an IC50 of 37 µg/mL (≈ 71.1 µM). For COc1cc(O[C@@H]2O[C@H](CO)[C@@H](O)[C@H](O)[C@H]2O)c2c(=O)cc(-c3cc(O)c(OC)c(OC)c3)oc2c1 [LETHEDOSIDE C], the IC50 was 43 µg/mL (≈ 84.9 µM). For COc1cc(O)c2c(=O)cc(-c3ccc(O)c(OC)c3)oc2c1 [VELUTIN], the IC50 was 1.5 µg/mL (≈ 4.77 µM).
